Measured values: patent US8969563B2, “Calcium salt of pyrroloquinoline quinone” (Mitsubishi Gas Chemical Company, Inc., priority 2010, dated 2015)
Structures can show the parent of a compound that is named as a salt.

Tests used:
[1] = system: Chinese hamster ovary cells (CHO-DHFR−); experiment: Absorption test using cells (cell growth promotion / retardation); type: cell-based; conditions: 2-day culture; for Optimum cell growth concentration: Cell Counting Kit 8, absorbance 450 nm, concentration at which cell count is largest (about 5%) compared to without PQQ, tested 150 to 2.3 μg/mL; for Cell growth retarding concentration: concentration at which total cell count is decreased by about 10% compared to without PQQ
Procedure: PQQ has effects of promoting cell growth and of retarding cell growth at a higher concentration on cultured animal cells. Based on these effects, change in the cell absorption was tested.
Chinese hamster ovary cells (CHO-DHFR^−, Dainippon Sumitomo Pharma Co., Ltd.) were cultured in a medium (alpha-MEM+10% fetal bovine serum) containing 5% CO2 at 37° C. The cultured cells were added together with 100 μL of the medium to each well of the 96-well plate (IWAKI) so that the cell density per well is 6,000 cells/well, and culture was performed overnight. The culture solution was removed, and the medium having a predetermined test concentration was added thereto. After a 2-day culture, the medium was replaced, a Cell Counting Kit 8 (from DOJINDO LABORATORIES) was used to stain the cells for one hour, and measurement of absorbance was performed at 450 nm. The absorbance in this case is proportional to the cell number.
As the test samples, the crystalline calcium salts of PQQ in Examples 1 and 2 above, and the disodium salt of PQQ or the raw material in Test Example 1, were used for testing after dilution by the medium. The test was duplicated for each sample, and the results were averaged.
The concentration at which the cell count due to PQQ is largest (about 5%) compared to the case without PQQ is recorded as the optimum cell growth concentration. In addition, the concentration at which the total cell count is decreased by about 10% compared to the case without PQQ is recorded as the cell-growth retarding concentration.

[2] = Elution test: amount of PQQ dissolved from the calcium salt with or without a chelating substance; type: physicochemical; conditions: for Dissolved amount: added to water (1 mL), four hours at room temperature, centrifugation, absorption at 450 nm
Procedure: Changes in the solubility of the insoluble salt due to the addition of a chelating substance were measured.

[3] = Water solubility of the recovered solid (description); type: physicochemical; conditions: dried solid
[4] = Release of PQQ from the white calcium salt in solvents; type: physicochemical; conditions: for Appearance: 40° C., five hours
Procedure: After keeping each resultant mixture at 40° C. for five hours, centrifugation was performed to remove solids, and PQQ was analyzed on high performance liquid chromatography.

Row | Compound | Optimum cell growth concentration [1] | Cell growth retarding concentration [1] | Dissolved amount [2] | solubility of the calcium salt alone ([2]; water, no chelating substance) | water solubility [3] | Appearance ([4]; Acetic acid 30 mM + Ammonium acetate 70 mM (pH 5)) | Appearance ([4]; Dimethyl sulfoxide) | Appearance ([4]; Na2HPO4 23.5 g/L NaH2PO4 5 g/L) | Appearance ([4]; PBS (GIBCO, pH 7.4)) | Appearance ([4]; Simulated gastric fluid (pH 1.7)) | release of calcium ions ([4]; neutral solution of phosphoric acid) | release of calcium ions ([4]; simulated gastric fluid)
1 | O=C([O-])c1cc(C(=O)[O-])c2c(n1)C(=O)C(=O)c1cc(C(=O)O)[nH]c1-2.[Na+].[Na+] [Comparative Example 1, disodium salt of PQQ, reference compound] | 75 µg/mL | 150 µg/mL | – | – | – | – | – | – | – | – | – | –
2 | O=C(O)c1cc(C(=O)O)c2c(n1)C(=O)C(=O)c1cc(C(=O)O)[nH]c1-2 [Example 1, crystalline calcium salt of PQQ] | 2.3 µg/mL | 75 µg/mL | 1% | very low | poorly water-soluble | – | – | – | – | – | – | –
3 | crystalline calcium salt of PQQ [Example 2] | 4.7 µg/mL | 75 µg/mL | 3% | – | – | – | – | – | – | – | – | –
4 | white calcium salt of PQQ [Example 15] | – | – | – | – | – | White solid | Red solution | Red solution | Red solid | Red solid | easily released | difficult to be released
